Several values for one entry are separate records, joined by “and”; a condition that tells them apart may be missing. Equal entries are not always repeated.
How the values were obtained:
[1] = Classification by basicity, acidity or neutrality; assay type: physicochemical
Ames test = assay type: cell-based
mammalian cell = test: Mammalian cell chromosomal aberration test; assay type: cell-based
[2] = test system: large intestinal roundworms (Ascaris suum); test: Anthelmintic activity against swine large intestinal roundworms; assay type: in vivo; settings: oral in feed; for Number of remaining worms: autopsy one week; for EPG Before administration: baseline; for EPG Upon autopsy: one week
Description: The anthelmintic effect of the PF 1022 substance in swine was evaluated by orally administering the substance to swine found to be infected with large intestinal roundworms (Ascaris suum) by scatoscopy.
The PF 1022 substance was administered either once at 5 mg/kg or 10 mg/kg, or at a daily dose of 1.25 mg/kg, 2.5 mg/kg or 5 mg/kg once daily for consecutive 2 days by admixing an amount of the substance as such equal to each dose with a small portion of the ordinary feed. After administration, the worms eliminated were counted and the feces examined for the number of roundworm eggs per gram of feces (EPG) daily. One week after commencement of administration, the animals were sacrificed and autopsied for counting the worms remaining in the intestinal tract.

[3] = test system: whipworms (Trichuris suis); test: Anthelmintic activity against swine whipworms; assay type: in vivo; settings: oral in feed; for Number of remaining worms: autopsy one week; for EPG Before administration: baseline; for EPG Upon autopsy: one week
Description: The PF 1022 substance was evaluated for its anthelmintic effect on swine whipworms by orally administering it to swine found to be infected with whipworms (Trichuris suis) by scatoscopy.
The PF 1022 substance was administered either once at 1 mg/kg, 5 mg/kg or 10 mg/kg, or at a daily dose of 2.5 mg/kg or 5 mg/kg once daily for 2 consecutive days by admixing an amount of the substance as such equal to each dose with a small portion of the ordinary feed. After administration, the number of whipworm eggs in the feces of each animal was determined daily in terms of EPG. In three animals, the worms eliminated were counted as well. One week after initiation of administration, all the animals were sacrificed and autopsied and the worms remaining in the intestinal tract were counted.

[4] = 2 administrations, 1.25 mg/kg/administration, 1.25 mg/kg
[5] = 2 administrations, 2.5 mg/kg/administration
[6] = 2 administrations, 5 mg/kg/administration

CC(C)C[C@H]1C(=O)O[C@H](Cc2ccccc2)C(=O)N(C)[C@@H](CC(C)C)C(=O)O[C@H](C)C(=O)N(C)[C@@H](CC(C)C)C(=O)O[C@H](Cc2ccccc2)C(=O)N(C)[C@@H](CC(C)C)C(=O)O[C@H](C)C(=O)N1C [PF 1022 substance]
Classification by basicity, acidity or neutrality [1]: Neutral substance | Ames test result (Ames test): negative | mammalian cell chromosomal aberration test result (mammalian cell): negative | Number of worms eliminated ([2]; 1 administration, 5 mg/kg): 12 | Number of remaining worms ([2]; 1 administration, 5 mg/kg): 13 | EPG Before administration ([2]; 1 administration, 5 mg/kg): 99000 | EPG Upon autopsy ([2]; 1 administration, 5 mg/kg): 8000 | Number of worms eliminated ([2]; 1 administration, 10 mg/kg): 7 | Number of remaining worms ([2]; 1 administration, 10 mg/kg): 5 | EPG Before administration ([2]; 1 administration, 10 mg/kg): 2100 | EPG Upon autopsy ([2]; 1 administration, 10 mg/kg): 200 | Number of worms eliminated ([2]; 2 administrations, 1.25 mg/kg/administration): 2 | % Elimination [2, 4]: 18.2% and 33.3% | EPG Before administration [2, 4]: 2300 and 1800 | Number of remaining worms [2, 5]: 1 | EPG Before administration ([2]; 2 administrations, 2.5 mg/kg/administration, 2.5 mg/kg): 3300 and 3800 | EPG Upon autopsy [2, 5]: 0 | % Elimination [2, 6]: 100% | Number of worms eliminated [2, 6]: 13 | Number of remaining worms [2, 6]: 0 | EPG Before administration [2, 6]: 2700 | EPG Upon autopsy [2, 6]: 0 | % Elimination ([3]; 1 administration, 1 mg/kg): 4.0% | Number of worms eliminated ([3]; 1 administration, 1 mg/kg): 14 | Number of remaining worms ([3]; 1 administration, 1 mg/kg): 334 | EPG Before administration ([3]; 1 administration, 1 mg/kg): 5500 | EPG Upon autopsy ([3]; 1 administration, 1 mg/kg): 1200 | % Elimination ([3]; 1 administration, 10 mg/kg): 100% | Number of remaining worms ([3]; 1 administration, 10 mg/kg): 0 | EPG Before administration ([3]; 1 administration, 10 mg/kg): 1800 | EPG Upon autopsy ([3]; 1 administration, 10 mg/kg): 0 | % Elimination [3, 5]: 100% | EPG Upon autopsy [3, 5]: 0 | % Elimination [3, 6]: 100% | Number of remaining worms [3, 6]: 0 | EPG Before administration [3, 6]: 100 | EPG Upon autopsy [3, 6]: 0

Reference: US5116815A, “PF 1022 substance, method of treating helminthic parasitic infection and anthelmintic composition” (Meiji Seika Kaisha Ltd., priority 1989, dated 1992)
